In publication PMC3090687 (Journal of medicinal chemistry, 2011):

Assay: in vivo pharmacokinetics in mice, intravenous and oral
Design: species or system mouse

SMILES | oral bioavailability, in words (oral administration) | improvement of bioavailability compared to compound 1 (oral, comparison with ref 22)
CCC(=O)N1CCN(c2ccc(-n3c(=O)ccc4cnc5ccc(-c6cnc7ccccc7c6)cc5c43)cc2C(F)(F)F)CC1 [Compound 1, 1-(4-(4-propionylpiperazin-1-yl)-3-(trifluoromethyl)phenyl)-9-(quinolin-3-yl)benzo[h][1,6]naphthyridin-2(1H)-one] | very limited oral bioavailability | 
Nc1ccc(-c2ccc3ncc4ccc(=O)n(-c5cccc(C(F)(F)F)c5)c4c3c2)cn1 [Compound 3, 9-(6-aminopyridin-3-yl)-1-(3-(trifluoromethyl)phenyl)benzo[h][1,6]naphthyridin-2(1H)-one] |  | approximately 10 fold
